Experimental data taken from PubChem BioAssay AID256 (DTP/NCI, 2004).
“And” between values parts separate entries of the source, which are not always exact repeats. Identical values can stand only once. Inconclusive results and toxic doses are left out.

System: CD2F1 mice, L1210 leukemia ip, survival T/C
Assay: NCI In Vivo Anticancer Drug Screen. Data for tumor model L1210 Leukemia (intraperitoneal) in CD2F1 (CDF1) mice
Details: higher = longer survival
Method in brief: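 Ratio T/C, where T is the treated-group value and C the vehicle-dosed control value, from mice implanted with a transplantable tumor.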

[1] = endpoint: mean survival time, dose: 12.5 mg/kg/injection, schedule: Q01DX009 (ip), vehicle: saline with Tween-80
[2] = endpoint: mean survival time, dose: 100.0 mg/kg/injection, schedule: Q01DX009 (ip), vehicle: saline with Tween-80

## CCOC(=O)CCC(NC(=O)OCCNCCCl)C(=O)OCC (configuration not stated)
endpoint: mean survival time, dose: 40.0 mg/kg/injection, schedule: Q01DX Z (ip), vehicle: saline
  T/C: 100 % of control
endpoint: mean survival time, dose: 80.0 mg/kg/injection, schedule: Q01DX Z (ip), vehicle: saline
  T/C: 96 % of control
endpoint: mean survival time, dose: 160.0 mg/kg/injection, schedule: Q01DX Z (ip), vehicle: saline
  T/C: 103 % of control
endpoint: mean survival time, dose: 320.0 mg/kg/injection, schedule: Q01DX Z (ip), vehicle: saline
  T/C: 117 % of control

## O=C(N/N=C/c1ccc(O)cc1)c1ccccc1
endpoint: mean survival time, dose: 100.0 mg/kg/injection, schedule: Q01DX001 (ip), vehicle: other
  T/C: 100 % of control
endpoint: mean survival time, dose: 100.0 mg/kg/injection, schedule: Q01DX009 (ip), vehicle: Klucel (hydroxypropylcellulose) (HPC)
  T/C: 100 % of control
endpoint: mean survival time, dose: 200.0 mg/kg/injection, schedule: Q01DX001 (ip), vehicle: other
  T/C: 94 % of control
endpoint: mean survival time, dose: 200.0 mg/kg/injection, schedule: Q01DX009 (ip), vehicle: Klucel (hydroxypropylcellulose) (HPC)
  T/C: 96 % of control
endpoint: mean survival time, dose: 400.0 mg/kg/injection, schedule: Q01DX001 (ip), vehicle: other
  T/C: 103 % of control
endpoint: mean survival time, dose: 400.0 mg/kg/injection, schedule: Q01DX009 (ip), vehicle: Klucel (hydroxypropylcellulose) (HPC)
  T/C: 94 % of control

## [N-]=[N+]=NC1C(O)C(CO)OC1n1c(=O)[nH]c2c(N)ncnc21 (configuration not stated)
endpoint: mean survival time, dose: 12.5 mg/kg/injection, schedule: Q01DX005 (ip), vehicle: water
  T/C: 94 % of control
endpoint: mean survival time, dose: 25.0 mg/kg/injection, schedule: Q01DX005 (ip), vehicle: water
  T/C: 99 % of control
endpoint: mean survival time, dose: 50.0 mg/kg/injection, schedule: Q01DX005 (ip), vehicle: water
  T/C: 97 % of control
endpoint: mean survival time, dose: 100.0 mg/kg/injection, schedule: Q01DX005 (ip), vehicle: water
  T/C: 97 % of control
endpoint: mean survival time, dose: 200.0 mg/kg/injection, schedule: Q01DX005 (ip), vehicle: water
  T/C: 97 % of control

## CCCCOC(=O)/C=C(\Br)C(=O)OCCCC
endpoint: mean survival time, dose: 6.25 mg/kg/injection, schedule: Q01DX009 (ip), vehicle: saline with Tween-80
  T/C: 92 % of control and 96 % of control
[1]
  T/C: 94 % of control and 105 % of control
endpoint: mean survival time, dose: 25.0 mg/kg/injection, schedule: Q01DX009 (ip), vehicle: saline with Tween-80
  T/C: 95 % of control and 100 % of control
endpoint: mean survival time, dose: 50.0 mg/kg/injection, schedule: Q01DX009 (ip), vehicle: saline with Tween-80
  T/C: 100 % of control
[2]
  T/C: 92 % of control

## CCN(CC)CC(COC)Oc1cc(C)ccc1C(C)C (configuration not stated)
endpoint: mean survival time, dose: 100.0 mg/kg/injection, schedule: Q04DX003 (ip), vehicle: Klucel (hydroxypropylcellulose) (HPC)
  T/C: 92 % of control
endpoint: mean survival time, dose: 200.0 mg/kg/injection, schedule: Q04DX003 (ip), vehicle: Klucel (hydroxypropylcellulose) (HPC)
  T/C: 93 % of control

## CC1(C)N=C(N)N=C(N)N1c1ccc(CCCCc2ccc(S(=O)(=O)F)cc2Cl)c(Cl)c1
endpoint: mean survival time, dose: 2.59 mg/kg/injection, schedule: Q01DX009 (ip), vehicle: Klucel (hydroxypropylcellulose) (HPC)
  T/C: 105 % of control
endpoint: mean survival time, dose: 4.32 mg/kg/injection, schedule: Q01DX009 (ip), vehicle: Klucel (hydroxypropylcellulose) (HPC)
  T/C: 105 % of control
endpoint: mean survival time, dose: 7.2 mg/kg/injection, schedule: Q01DX009 (ip), vehicle: Klucel (hydroxypropylcellulose) (HPC)
  T/C: 116 % of control
endpoint: mean survival time, dose: 7.5 mg/kg/injection, schedule: Q01DX009 (ip), vehicle: Klucel (hydroxypropylcellulose) (HPC)
  T/C: 100 % of control
[1]
  T/C: 117 % of control
endpoint: mean survival time, dose: 15.0 mg/kg/injection, schedule: Q01DX009 (ip), vehicle: Klucel (hydroxypropylcellulose) (HPC)
  T/C: 104 % of control
endpoint: mean survival time, dose: 30.0 mg/kg/injection, schedule: Q01DX009 (ip), vehicle: Klucel (hydroxypropylcellulose) (HPC)
  T/C: 113 % of control
endpoint: mean survival time, dose: 50.0 mg/kg/injection, schedule: Q04DX003 (ip), vehicle: saline
  T/C: 103 % of control
endpoint: mean survival time, dose: 60.0 mg/kg/injection, schedule: Q01DX009 (ip), vehicle: Klucel (hydroxypropylcellulose) (HPC)
  T/C: 115 % of control
endpoint: mean survival time, dose: 75.0 mg/kg/injection, schedule: Q04DX003 (ip), vehicle: saline
  T/C: 104 % of control
[2]
  T/C: 97 % of control
endpoint: mean survival time, dose: 110.0 mg/kg/injection, schedule: Q04DX003 (ip), vehicle: saline
  T/C: 121 % of control and 105 % of control
endpoint: mean survival time, dose: 133.0 mg/kg/injection, schedule: Q04DX003 (ip), vehicle: saline with Tween-80
  T/C: 158 % of control
endpoint: mean survival time, dose: 300.0 mg/kg/injection, schedule: Q04DX003 (ip), vehicle: saline with Tween-80
  T/C: 107 % of control
endpoint: median survival time, dose: 27.0 mg/kg/injection, schedule: Q01DX009 (ip), vehicle: saline with Tween-80
  T/C: 156 % of control
endpoint: median survival time, dose: 40.0 mg/kg/injection, schedule: Q01DX009 (ip), vehicle: saline with Tween-80
  T/C: 156 % of control and 162 % of control
endpoint: median survival time, dose: 60.0 mg/kg/injection, schedule: Q01DX009 (ip), vehicle: saline with Tween-80
  T/C: 158 % of control
endpoint: median survival time, dose: 90.0 mg/kg/injection, schedule: Q01DX009 (ip), vehicle: saline with Tween-80
  T/C: 168 % of control
endpoint: median survival time, dose: 200.0 mg/kg/injection, schedule: Q04DX003 (ip), vehicle: saline with Tween-80
  T/C: 167 % of control
endpoint: median survival time, dose: 225.0 mg/kg/injection, schedule: Q04DX003 (ip), vehicle: saline with Tween-80
  T/C: 164 % of control
